The results in this text go back to US20060167098A1, “Method for the treatment of diseases linked to an accumulation of triglycerides and cholesterol” (Institut National De La Sante ET De LA Recherche Medicale …, priority 2003, published 2006).

Holding throughout (format): in vivo
A short description of test [1]: Liver lipids in Swiss mice fed with a western diet. The conditions noted are these: 100 mg/kg/day, western diet 6 weeks, fasted 48 h. How it is done:
Total lipids and triglycerides in the liver of animals were assessed according to a procedure partially reported by (Letteron P., Fromenty B., Terris B., Degott C., Pessayre D., 1996, J. Hepatol. 24 : 200-208). Briefly, after killing of the animals, livers were removed and homogenized in sterile water. Hepatic lipids were thus extracted by a mixture of chloroform and methanol (2/1; v/v). After removal of the aqueous phase, the organic phase (chloroform containing the lipids) was evaporated and the amount of lipids was determined by gravimetry. Lipids were subsequently resuspended in isopropanol (final concentration, ca. 10 mg/mL). After removal of the phopholipids by using aluminum hydroxide hydrate, triglycerides were determined colorimetrically by using periodate and the Nash's reagent (containing acetylacetone, ammonium acetate and isopropanol). The reaction generates diacetyldihydrolutidine which is assayed by spectrophotometry (λ=410 nm).
Liver lipids were assessed in mice fed with the western diet (WD) receiving or not of 100 mg/kg/day of β-aminoisobutyric acid (BAIBA) in the drinking water (8 mice in each group). For comparison, the experiment also included a group of mice (n=8) fed with a standard diet (SD). These animals were those used for the determination of body fat by DEXA (see above, paragraph I-c) but after the last DEXA measurement (i.e. after 6 weeks of treatment), mice were allowed to recover from the anaesthesia for ca. 2 days and were then submitted to a 48-hour period of fast. At the end of this fasting period DEXA was again performed (see above) and then mice were killed for liver lipids determination. The western diet was responsible for an increase in liver lipids as compared to mice fed with the standard diet.

Test [2] in a line: Liver histology in ob/ob mice, first series (48-hr fast). The conditions noted are these: standard diet. How it is done: (§1) Plasma HDL-cholesterol and alanine aminotransferase (ALT) were measured on an automatic analyser (Olympus AU400®) with commercial kits (Olympus Diagnostica GmbH, references OSR6187 and OSR6107, respectively).
Finally, liver histology was performed according to regular procedure. Steatosis and fibrosis were assessed thanks to the Oil red O and Masson's trichrome stains, respectively, whereas necrosis and inflammation were determined thanks to the HPS (Hematoxylin-Phloxin-Saffron) stain, or the HE (Hematoxylin-Eosin) stain. In one experiment, perisinusoidal fibrosis was assessed with the Sirius Red stain.
Liver histology was first examined in ob/ob mice fed with standard diet receiving (11 mice) or not (10 mice) β-aminoisobutyric acid in the drinking water. In this experiment, mice were submitted to a 48-hr period of fast before killing and liver examination.

The nature of test [3]: Plasma HDL-cholesterol and triglycerides in ob/ob mice during a 4-month treatment. How it is done: Plasma lipids (triglycerides, total cholesterol, phospholipids) were measured on an automatic analyser (Hitachi 717®). The commercial kits used to assess triglycerides, total cholesterol and phospholipids on this analyser were all from bioMérieux (references 61238, 61219 and 61491, respectively). Plasma non esterified fatty acids (NEFA) were assessed by using a commercial kit (Wako, reference 994-75409). Hepatic and plasma lipids were performed at the end of six weeks of treatment in animals that have been fasted for 48 hours. Triglycerides and HDL-cholesterol were also assessed after 2 months (in the fed state) or after 4 months of treatment (after an overnight fast).
as §1
In this series of experiments, plasma lipids, and especially HDL-cholesterol were assessed in ob/ob mice during a 4-month period of treatment. Mice were fed with standard diet. Ob/ob mice were treated for 4 months with β-aminoisobutyric acid, administered either at the usual dose (100 mg/kg/day) or at a higher dose (500 mg/kg/day). After two months, measurements were done in the fed state, while at the end of the treatment (i.e. after 4 months) plasma parameters were assessed after a overnight fasting period (i.e. 15 hours). One mice in the control group died between the third and fourth month of treatment.
The number of mice at the end of the experiment was 6,7 and 8, respectively in the control group and the groups treated with 100 and 500 mg/kg/day of β-aminoisobutyric acid. It is noteworthy that the animals studied in this experiment are the same than those cholesterol. Indeed, HDL-cholesterol was 3.26±0.33, 3.45±0.31 and 3.64±0.31 mmol/L, respectively in control mice and mice treated with 100 and 500 mg/kg/day of β-aminoisobutyric acid. Plasma triglycerides tended to be decreased in treated mice. Triglycerides were indeed 1.37±0.13, 1.09±0.06 and 1.25±0.17 mmol/L, respectively in control mice and mice treated with 100 and 500 mg/kg/day of β-aminoisobutyric acid.

Where [4] appears, read: 100 mg/kg/day, after 4 months, fasted state.
The mark [5] stands for this setting: 100 mg/kg/day, first time point (two months, fed state).
Where [6] appears, read: 500 mg/kg/day, after 4 months, fasted state.
Where [7] appears, read: 500 mg/kg/day, first time point (two months, fed state).

In test [1], `CC(CN)C(=O)O` (racemic) [BAIBA, D,L-β-Aminoisobutyric acid] returned a hepatic triglycerides of 33±6 mg/whole liver and a liver lipids of 108±7 mg/whole liver. In test [1] (vs Controls-WD), the “decrease of liver total lipids” value is on record as 24% and the “decrease of liver triglycerides” value is 17%. In test [2], the animals with inflammation came out at 63%, the animals with necrosis was determined as 63%, the “animals with perisinusoidal fibrosis” value came to 45% and the plasma alanine aminotransferase result is given as “not decreased”. The “mice with between 90 and 100% of fat-laden hepatocytes” value in test [2] (11 treated mice) is 27%. In test [3] (setting [4]), this molecule gave an HDL-cholesterol of 4.01 ± 0.30 mmol/L and a plasma triglycerides of 1.34 ± 0.08 mmol/L. In test [3] (setting [5]), this molecule displayed an HDL-cholesterol of 3.45 ± 0.31 mmol/L and a plasma triglycerides of 1.09 ± 0.06 mmol/L. In test [3] (setting [6]), this molecule gave an HDL-cholesterol of 3.98 ± 0.31 mmol/L and a plasma triglycerides of 1.26 ± 0.07 mmol/L. Further, in test [3] (setting [7]), the HDL-cholesterol amounted to 3.64 ± 0.31 mmol/L and the plasma triglycerides was determined as 1.25 ± 0.17 mmol/L.
